Assay results: patent US9732047B2, “N-alkoxyamide conjugates as imaging agents” (Lantheus Medical Imaging, Inc., priority 2008, dated 2017)
Read-outs that look alike come from different tables or passages of the source.

Key:
[1] = test system: Aorta bearing atherosclerotic plaque; experiment: Ex-vivo blood vessel binding assay; parameters: species or system New Zealand white rabbits; conditions: 153Gd-labeled compound 0.135 μCi in PBS, 2 h at 37° C., plaque-bearing rabbit aorta sections; percentage of initial activity
Protocol: Aorta bearing atherosclerotic plaque was obtained from New Zealand white rabbits that were balloon stripped along the abdominal aorta and placed on a high fat diet (0.5% cholesterol) for 16-22 weeks. Vascular injury was produced with a 4-F Fogarty catheter along the abdominal aorta and right iliofemoral artery. This procedure generates an accelerated complex lesion development with a lipid rich core covered by a fibrous cap in rabbits. Harvested aorta sections (0.5 cm) were incubated with 0.135 μCi of ^153Gd-labeled compound diluted in phosphate buffered saline (450 μL) for 2 h at 37° C. The supernatant was removed and analyzed by HPLC to assay compound stability. The tissue section was then washed with phosphate buffered saline (3×10 mL), then resuspended (10 mL) and incubated at 37° C. an additional 1 h. The supernatant was then removed, the washing process repeated and the tissue finally counted on a gamma counter. The amount of compound bound to the tissue was determined as a percentage of the initial activity according to the following formula: […]

[2] = test system: aorta; conditions: 60 min post injection; for aorta uptake (% ID/g): ApoE mice on high-fat diet 35-42 weeks, 0.3-0.4 mCi/kg bolus via tail vein; for aorta:blood / aorta:heart: ApoE mice, uptake ratio
Protocol: The apolipoprotein E (ApoE) knockout mouse is a model of hypercholesterolemia that develops atherosclerotic lesions in the brachiocephalic artery, the aortic arch and the abdominal aorta. Mice were fed a high-fat diet to accelerate plaque formation and compounds were tested in the mice between 35-42 weeks on diet. Test compounds were administered at 0.3-0.4 mCi/kg to anesthetized mice in a single, bolus injection via the tail vein. Blood samples were collected via the tail between 0-30 min post injection for pharmacokinetic analysis and mice were euthanized by CO2 at 60 min for tissue harvesting. The aorta was first flushed with saline through the left ventricle exiting via the femoral vein then removed from the heart to the renal bifurcation; additional biological samples were also collected (blood, muscle, liver, kidney, bile, urine, heart, femur, reproductive organ, lung, spleen and innominate artery). All samples were weighed and assayed for radioactivity; uptake is expressed as a percentage of injected dose per gram of tissue (% ID/g).

[3] = test system: aorta; conditions: 60 min post injection; for aorta (% ID/g ± SD): 0.01-0.05 mCi/kg bolus via marginal ear vein
Protocol: Atherosclerosis was induced in New Zealand White male rabbits (3 kg) with aortic balloon endothelial injury (vide supra) followed by feeding a 0.5% cholesterol diet for 22 weeks. Test compounds were administered at 0.01-0.05 mCi/kg to anesthetized rabbits in a single, bolus injection via the marginal ear vein. Blood samples were collected from the central ear artery at 0, 2, 5, 7, 10, 15, 30 and 60 min post injection. Rabbits were euthanized at 60 min post injection for tissue harvesting (blood, muscle, bile, urine, kidney, liver, spleen, heart, lung, colon, small intestine, stomach, testes and in some cases, sternum, ligament and right ear). Abdominal aorta (upper, middle, and lower) and left and right femoral arteries were also collected. All samples were weighed and assayed for radioactivity; uptake is expressed as percentage of injected dose per gram of tissue (% ID/g).

[4] = control rabbit (non-plaque bearing)

| SMILES | % bound [1] | aorta uptake (% ID/g) [2] | aorta:blood [2] | aorta:heart [2] | aorta (% ID/g ± SD) [3, 4] | aorta:blood ([3]; control rabbit) | aorta:heart ([3]; control rabbit) | aorta (% ID/g ± SD) ([3]; plaque rabbit) | aorta:blood ([3]; plaque rabbit) | aorta:heart ([3]; plaque rabbit) |
| --- | --- | --- | --- | --- | --- | --- | --- | --- | --- | --- |
| [153Gd+3].[NH3+][C@H](CCc1ccccc1)C(=O)NOCCCc1ccc(CNC(=O)CN(CCN(CC(=O)[O-])CC(=O)[O-])CCN(CC(=O)[O-])CC(=O)[O-])cc1 [Example 44] | 27.3% | 8.4 ± 0.2 % ID/g | 3.2 | 12.5 | – | – | – | – | – | – |
| O=C([O-])CN1CCN(CC(=O)[O-])CCN(CC(=O)NCc2ccc(CNC(CCc3ccccc3)C(=O)NOCc3ccccc3)cc2)CCN(CC(=O)[O-])CC1.[153Gd+3] (centres unmarked) [Example 53] | – | 1.5 ± 0.1 % ID/g | 0.8 | 4.2 | – | – | – | – | – | – |
| [153Gd+3].[NH3+][C@H](Cc1ccc2ccccc2c1)C(=O)NOCc1ccc(CNC(=O)CN(CCN(CC(=O)[O-])CC(=O)[O-])CCN(CC(=O)[O-])CC(=O)[O-])cc1 [Example 57] | 30.6% | 11.1 ± 0.3 % ID/g | 5.0 | 17.8 | – | – | – | – | – | – |
| [153Gd+3].[NH3+][C@H](CCc1ccccc1)C(=O)NOc1ccc(CNC(=O)CN(CCN(CC(=O)[O-])CC(=O)[O-])CCN(CC(=O)[O-])CC(=O)[O-])cc1 [Example 47] | 6.6% | 4.7 ± 0.4 % ID/g | 0.7 | 4.8 | – | – | – | – | – | – |
| CC(C)C[C@@H]([NH3+])C(=O)NOCCc1ccc(CNC(=O)CN(CCN(CC(=O)[O-])CC(=O)[O-])CCN(CC(=O)[O-])CC(=O)[O-])cc1.[153Gd+3] [Example 49] | 9.1% | 4.9 ± 0.2 % ID/g | 5.5 | 22.9 | – | – | – | – | – | – |
| [153Gd+3].[NH3+][C@H](Cc1ccc(O)cc1)C(=O)NOCc1ccc(CNC(=O)CN(CCN(CC(=O)[O-])CC(=O)[O-])CCN(CC(=O)[O-])CC(=O)[O-])cc1 [Example 63] | 11.7% | 8.7 ± 0.4 % ID/g | 6.0 | 13.0 | – | – | – | – | – | – |
| CC(C)C[C@@H](N)C(=O)NOCc1ccc(CNC(=O)CN2CCN(CC(=O)[O-])CCN(CC(=O)[O-])CCN(CC(=O)[O-])CC2)cc1.[153Gd+3] [Example 59] | 5.2% | 8.2 ± 1.3 % ID/g | 3.7 | 15.4 | – | – | – | – | – | – |
| CC(C)C[C@@H]([NH3+])C(=O)NOCc1ccc(CNC(=O)CN(CCN(CC(=O)[O-])CC(=O)[O-])CCN(CC(=O)[O-])CC(=O)[O-])cc1.[153Gd+3] [Example 56] | – | 8.5 ± 1.8 % ID/g | 5.5 | 21.2 | – | – | – | – | – | – |
| N[C@H](CCc1ccccc1)C(=O)NOCc1ccc(CNC(=O)CN2CCN(CC(=O)[O-])CCN(CC(=O)[O-])CCN(CC(=O)[O-])CC2)cc1.[153Gd+3] [Example 38] | 19.1% | 11.6 ± 0.8 % ID/g | 5.5 | 20.5 | 0.196 ± 0.023 % ID/g | 5.1 | 11.0 | 0.103 ± 0.002 % ID/g | 2.4 | 5.1 |
| [153Gd+3].[NH3+][C@H](Cc1ccc(-c2ccccc2)cc1)C(=O)NOCCCCCCNC(=O)CN(CCN(CC(=O)[O-])CC(=O)[O-])CCN(CC(=O)[O-])CC(=O)[O-] [Example 41] | 28.7% | 2.0 ± 0.1 % ID/g | 7.2 | 20.4 | – | – | – | – | – | – |
| [153Gd+3].[NH3+][C@H](CCc1ccccc1)C(=O)NOCc1ccc(CNC(=O)CN(CCN(CC(=O)[O-])CC(=O)[O-])CCN(CC(=O)[O-])CC(=O)[O-])cc1 [Example 37] | 12.8% | 10.4 ± 1.4 % ID/g | 4.2 | 16.2 | – | – | – | 0.087 ± 0.010 % ID/g | 2.1 | 4.6 |
| N[C@H](Cc1cc2ccccc2[nH]1)C(=O)NOCc1ccc(CNC(=O)CN2CCN(CC(=O)[O-])CCN(CC(=O)[O-])CCN(CC(=O)[O-])CC2)cc1.[153Gd+3] [Example 62] | 17.1% | 11.8 ± 1.4 % ID/g | 5.7 | 22.2 | 0.159 % ID/g | 3.2 | 6.4 | – | – | – |
| CC(C)C[C@@H]([NH3+])C(=O)NOc1ccc(CNC(=O)CN(CCN(CC(=O)[O-])CC(=O)[O-])CCN(CC(=O)[O-])CC(=O)[O-])cc1.[153Gd+3] [Example 46] | 0.9% | 0.9 ± 0.2 % ID/g | 1.1 | 4.9 | – | – | – | – | – | – |
| [153Gd+3].[NH3+][C@H](Cc1ccccc1)C(=O)NOCc1ccc(CNC(=O)CN(CCN(CC(=O)[O-])CC(=O)[O-])CCN(CC(=O)[O-])CC(=O)[O-])cc1 [Example 58] | 7.3% | 6.1 ± 0.2 % ID/g | 6.5 | 17.9 | – | – | – | – | – | – |
| N[C@H](Cc1ccc(CNC(=O)CN2CCN(CC(=O)[O-])CCN(CC(=O)[O-])CCN(CC(=O)[O-])CC2)cc1)C(=O)NOCc1ccccc1.[153Gd+3] [Example 55] | – | 3.0 ± 2.3 % ID/g | 1.0 | 8.8 | – | – | – | – | – | – |
| [153Gd+3].[NH3+][C@H](Cc1c[nH]c2ccccc12)C(=O)NOCCCc1ccc(CNC(=O)CN(CCN(CC(=O)[O-])CC(=O)[O-])CCN(CC(=O)[O-])CC(=O)[O-])cc1 [Example 43] | 27.1% | 6.0 ± 1.7 % ID/g | 2.7 | 9.0 | – | – | – | – | – | – |
| CC(C)C[C@@H]([NH3+])C(=O)NOCCCCCCNC(=O)CN(CCN(CC(=O)[O-])CC(=O)[O-])CCN(CC(=O)[O-])CC(=O)[O-].[153Gd+3] [Example 40] | 7.2% | 3.6 ± 0.3 % ID/g | 3.4 | 8.4 | – | – | – | – | – | – |
| [153Gd+3].[NH3+][C@@H](CCc1ccccc1)C(=O)NOCc1ccc(CNC(=O)CN(CCN(CC(=O)[O-])CC(=O)[O-])CCN(CC(=O)[O-])CC(=O)[O-])cc1 [Example 39] | 15.8% | 6.1 ± 0.4 % ID/g | 11.4 | 13.6 | – | – | – | – | – | – |
| CONC(=O)[C@H](N)Cc1ccc(CNC(=O)CN2CCN(CC(=O)[O-])CCN(CC(=O)[O-])CCN(CC(=O)[O-])CC2)cc1.[153Gd+3] [Example 54] | – | 2.5 ± 0.5 % ID/g | 1.2 | 5.3 | – | – | – | – | – | – |
| [153Gd+3].[NH3+][C@H](CCc1ccccc1)C(=O)NOCCc1ccc(CNC(=O)CN(CCN(CC(=O)[O-])CC(=O)[O-])CCN(CC(=O)[O-])CC(=O)[O-])cc1 [Example 50] | 24.2% | 10.4 ± 2.4 % ID/g | 3.7 | 13.5 | – | – | – | – | – | – |
| [153Gd+3].[NH3+][C@H](CC1CCCCC1)C(=O)NOCCCCCCNC(=O)CN(CCN(CC(=O)[O-])CC(=O)[O-])CCN(CC(=O)[O-])CC(=O)[O-] [Example 42] | 17.9% | 8.1 ± 1.1 % ID/g | 8.0 | 18.0 | – | – | – | – | – | – |
| [153Gd+3].[NH3+][C@H](CCc1ccccc1)C(=O)NOCCCCCCNC(=O)CN(CCN(CC(=O)[O-])CC(=O)[O-])CCN(CC(=O)[O-])CC(=O)[O-] [Example 45] | 14.4% | 9.0 ± 0.2 % ID/g | 2.1 | 12.1 | – | – | – | – | – | – |
| CONC(=O)C(CCc1ccccc1)NCc1ccc(CNC(=O)CN2CCN(CC(=O)[O-])CCN(CC(=O)[O-])CCN(CC(=O)[O-])CC2)cc1.[153Gd+3] (centres unmarked) [Example 52] | 6.9% | 6.1 ± 1.2 % ID/g | 2.0 | 9.2 | – | – | – | – | – | – |
| [153Gd+3].[NH3+][C@H](Cc1cc2ccccc2[nH]1)C(=O)NOCc1ccc(CNC(=O)CN(CCN(CC(=O)[O-])CC(=O)[O-])CCN(CC(=O)[O-])CC(=O)[O-])cc1 [Example 61] | 19.9% | 19.3 ± 0.2 % ID/g | 10.9 | 20.4 | – | – | – | – | – | – |
